Target: T1, CFTR (Homo sapiens, UniProt P13569, DEL508-508)
T1 construct: Primary CF airway epithelial cells were obtained from the UNC Cystic Fibrosis Tissue Procurement and Cell Culture Core; host or cells: primary CF airway epithelial cells
Assay: Equivalent current assay in Primary CF airway epithelial cells (NAUC)
Type: cell-based
Settings: 24 h, normalized to VX809 (3 μM) positive control; for Nauc @ 3 μM: 3 μM test compound; for Nauc @ 10 μM: 10 μM test compound
Summary of the method: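 NAUC is the area under the curve from forskolin (10 μM) plus VX770 (1 μM) addition to CFTR-172 (20 μM) block, after benzamil (5 μM). It is corrected for vehicle and scaled to 3 μM VX809 as 1.0 and DMSO as 0.0. Cells were exposed for 24 h to compounds with VX809; medians of ≥4 replicates were fitted sigmoidally.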

T1 sequence (P13569 with tags, fused parts or gaps DEL508-508): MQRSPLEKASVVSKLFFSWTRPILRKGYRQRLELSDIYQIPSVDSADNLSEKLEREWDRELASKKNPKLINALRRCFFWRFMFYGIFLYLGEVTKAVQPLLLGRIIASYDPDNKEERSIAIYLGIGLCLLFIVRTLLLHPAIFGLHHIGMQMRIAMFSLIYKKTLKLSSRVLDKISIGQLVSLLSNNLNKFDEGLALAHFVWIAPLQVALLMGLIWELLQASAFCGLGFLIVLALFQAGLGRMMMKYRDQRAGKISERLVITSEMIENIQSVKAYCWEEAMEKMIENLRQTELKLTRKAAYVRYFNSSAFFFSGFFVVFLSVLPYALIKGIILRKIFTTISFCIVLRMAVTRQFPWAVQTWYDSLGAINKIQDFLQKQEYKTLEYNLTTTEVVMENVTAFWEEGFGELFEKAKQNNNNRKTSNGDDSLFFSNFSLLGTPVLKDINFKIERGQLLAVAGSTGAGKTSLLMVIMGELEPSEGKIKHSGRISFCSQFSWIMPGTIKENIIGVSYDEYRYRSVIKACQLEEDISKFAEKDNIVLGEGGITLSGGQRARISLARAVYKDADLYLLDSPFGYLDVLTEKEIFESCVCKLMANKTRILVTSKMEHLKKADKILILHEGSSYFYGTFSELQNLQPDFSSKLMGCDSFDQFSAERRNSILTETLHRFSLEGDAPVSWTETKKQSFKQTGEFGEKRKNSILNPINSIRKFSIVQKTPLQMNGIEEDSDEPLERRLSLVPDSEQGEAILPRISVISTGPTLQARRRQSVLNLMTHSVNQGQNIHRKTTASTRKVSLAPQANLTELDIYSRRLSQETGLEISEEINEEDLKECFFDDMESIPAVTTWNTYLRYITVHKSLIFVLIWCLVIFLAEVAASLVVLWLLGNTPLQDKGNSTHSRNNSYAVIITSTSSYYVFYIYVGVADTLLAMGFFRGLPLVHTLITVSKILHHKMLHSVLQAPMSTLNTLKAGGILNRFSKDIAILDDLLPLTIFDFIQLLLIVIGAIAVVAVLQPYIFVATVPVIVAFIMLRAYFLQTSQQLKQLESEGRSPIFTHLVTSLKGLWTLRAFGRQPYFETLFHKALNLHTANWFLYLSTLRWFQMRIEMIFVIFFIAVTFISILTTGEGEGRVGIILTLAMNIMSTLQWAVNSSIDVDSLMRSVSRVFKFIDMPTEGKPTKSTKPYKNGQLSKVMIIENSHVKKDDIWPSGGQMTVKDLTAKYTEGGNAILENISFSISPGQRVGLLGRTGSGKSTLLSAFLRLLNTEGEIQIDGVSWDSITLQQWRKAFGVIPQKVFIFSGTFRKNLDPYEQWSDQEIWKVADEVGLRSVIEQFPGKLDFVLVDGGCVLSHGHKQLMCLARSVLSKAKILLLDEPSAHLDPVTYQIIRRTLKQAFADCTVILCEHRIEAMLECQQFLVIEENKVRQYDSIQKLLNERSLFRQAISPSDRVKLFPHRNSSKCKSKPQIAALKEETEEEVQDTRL

Row | SMILES | Nauc @ 3 μM | Nauc @ 10 μM
1 | O=C1C2C3CC4(CC4)CN3C3(C(=O)Nc4c(Cl)cc(Cl)cc43)C2C(=O)N1c1cc(Cl)cc(Cl)n1 (single isomer, unassigned) [Example 219] | ++ (NAUC “++” refers to an observed NAUC 170-140% of positive control) | + (NAUC “+” refers to an observed NAUC <140% of positive control)
2 | O=C1C2C3CC(F)(F)CN3C3(C(=O)Nc4c(Cl)cc(Cl)cc43)C2C(=O)N1c1cc(Cl)cc(Cl)n1 (single isomer, unassigned) [Example 220] | +++ (NAUC “+++” refers to an observed NAUC >170% of positive control) | +++ (NAUC “+++” refers to an observed NAUC >170% of positive control)
3 | COc1c(Cl)cc(N2C(=O)C3C4CC(F)(F)CN4C4(C(=O)Nc5c(Cl)cc(Cl)cc54)C3C2=O)cc1Cl (single isomer, unassigned) [Example 221] | +++ (NAUC “+++” refers to an observed NAUC >170% of positive control) | +++ (NAUC “+++” refers to an observed NAUC >170% of positive control)
4 | C[C@@]1(F)CC2C3C(=O)N(c4cc(Cl)cc(Cl)n4)C(=O)C3C3(C(=O)Nc4c(Cl)cc(Cl)cc43)N2C1 (single isomer, unassigned) [Example 230] | +++ (NAUC “+++” refers to an observed NAUC >170% of positive control) | +++ (NAUC “+++” refers to an observed NAUC >170% of positive control)
5 | C[C@]1(OCc2ccccc2)CC2C3C(=O)N(c4cc(Cl)cc(Cl)c4)C(=O)C3C3(C(=O)Nc4c(Cl)cc(Cl)cc43)N2C1 (single isomer, unassigned) [Example 239] | ++ (NAUC “++” refers to an observed NAUC 170-140% of positive control) | ++ (NAUC “++” refers to an observed NAUC 170-140% of positive control)
6 | C[C@]1(OCc2ccccc2)CC2C3C(=O)N(c4cc(Cl)cc(Cl)c4)C(=O)C3C3(C(=O)Nc4c(Cl)cc(Cl)cc43)N2C1 (single isomer, unassigned) [Example 240] | +++ (NAUC “+++” refers to an observed NAUC >170% of positive control) | + (NAUC “+” refers to an observed NAUC <140% of positive control)
7 | C[C@]1(OCc2ccccc2)CC2C3C(=O)N(c4cc(Cl)cc(Cl)c4)C(=O)C3C3(C(=O)Nc4c(Cl)cc(Cl)cc43)N2C1 (single isomer, unassigned) [Example 241] | +++ (NAUC “+++” refers to an observed NAUC >170% of positive control) | +++ (NAUC “+++” refers to an observed NAUC >170% of positive control)
8 | CC(C)C1NC2(C(=O)Nc3c(Cl)cc(Cl)cc32)C2C(=O)N(c3cc(Cl)cc(Cl)c3)C(=O)C12 (single isomer, unassigned) [Example 242] | +++ (NAUC “+++” refers to an observed NAUC >170% of positive control) | +++ (NAUC “+++” refers to an observed NAUC >170% of positive control)
9 | O=C1C2C3C[C@H](F)CN3C3(C(=O)Nc4c(Cl)cc(Cl)cc43)C2C(=O)N1c1cc(Cl)cc(Cl)c1 (single isomer, unassigned) [Example 243] | +++ (NAUC “+++” refers to an observed NAUC >170% of positive control) | +++ (NAUC “+++” refers to an observed NAUC >170% of positive control)
10 | C[C@]1(F)CC2C3C(=O)N(c4cc(Cl)cc(Cl)c4)C(=O)C3C3(C(=O)Nc4c(Cl)cc(Cl)cc43)N2C1 (single isomer, unassigned) [Example 249] | ++ (NAUC “++” refers to an observed NAUC 170-140% of positive control) | + (NAUC “+” refers to an observed NAUC <140% of positive control)
11 | O=C1C2C3CCCN3C3(C(=O)Nc4c(Cl)cc(Cl)cc43)C2C(=O)N1c1cc(Cl)c(OC(F)F)c(Cl)c1 (single isomer, unassigned) [Example 250] | +++ (NAUC “+++” refers to an observed NAUC >170% of positive control) | +++ (NAUC “+++” refers to an observed NAUC >170% of positive control)
12 | COc1cc(Cl)cc(N2C(=O)C3C4C[C@](C)(F)CN4C4(C(=O)Nc5c(Cl)cc(Cl)cc54)C3C2=O)c1 (single isomer, unassigned) [Example 254] | +++ (NAUC “+++” refers to an observed NAUC >170% of positive control) | +++ (NAUC “+++” refers to an observed NAUC >170% of positive control)
13 | CC1(C)CC2C3C(=O)N(c4cc(Cl)c(OC(F)F)c(Cl)c4)C(=O)C3C3(C(=O)Nc4c(Cl)cc(Cl)cc43)N2C1 (single isomer, unassigned) [Example 255] | +++ (NAUC “+++” refers to an observed NAUC >170% of positive control) | +++ (NAUC “+++” refers to an observed NAUC >170% of positive control)
14 | COc1cc(Cl)cc(N2C(=O)C3C4C[C@](C)(O)CN4C4(C(=O)Nc5c(Cl)cc(Cl)cc54)C3C2=O)c1 (single isomer, unassigned) [Example 256] | ++ (NAUC “++” refers to an observed NAUC 170-140% of positive control) | +++ (NAUC “+++” refers to an observed NAUC >170% of positive control)
15 | CCC(C)C1NC2(C(=O)Nc3c(Cl)cc(Cl)cc32)C2C(=O)N(c3cc(Cl)cc(OC)c3)C(=O)C12 (stereo not shown) [Example 7, 3′-(Sec-butyl)-5,7-dichloro-5′-(3-chloro-5-methoxyphenyl)-2′,3′,3a′,6a′-tetrahydro-4′H-spiro[indoline-3,1′-pyrrolo[3,4-c]pyrrole]-2,4′,6′(5′H)-trione] | ++ (NAUC “++” refers to an observed NAUC 170-140% of positive control) | ++ (NAUC “++” refers to an observed NAUC 170-140% of positive control)
16 | C[C@]1(O)CC2C3C(=O)N(c4nnn[nH]4)C(=O)C3C3(C(=O)Nc4c(Cl)cc(Cl)cc43)N2C1 (stereo partly drawn) [Example 8, (7′S)-5,7-Dichloro-7′-hydroxy-7′-methyl-2′-(1H-tetrazol-5-yl)-3a′,6′,7′,8′,8a′,8b′-hexahydro-1′H-spiro[indoline-3,4′-pyrrolo[3,4-a]pyrrolizine]-1′,2,3′(2′H)-trione] | +++ (NAUC “+++” refers to an observed NAUC >170% of positive control) | + (NAUC “+” refers to an observed NAUC <140% of positive control)
17 | O=C1C2C(C(=O)N1c1cc(Cl)cc(Cl)c1)C(c1ccc(F)nc1)N1CCCC21 (stereo not shown) [Example 9, 2-(3,5-Dichlorophenyl)-4-(6-fluoropyridin-3-yl)hexahydropyrrolo[3,4-a]pyrrolizine-1,3(2H,4H)-dione] | + (NAUC “+” refers to an observed NAUC <140% of positive control) | ++ (NAUC “++” refers to an observed NAUC 170-140% of positive control)
18 | C[C@]1(F)CC2C3C(=O)N(c4cc(Cl)cc(Cl)c4)C(=O)C3C3(C(=O)Nc4c(Cl)cc(Cl)cc43)N2C1 (stereo partly drawn) [Example 10, (7′S)-5,7-dichloro-2′-(3,5-dichlorophenyl)-7′-fluoro-7′-methyl-3a′,6′,7′,8′,8a′,8b′-hexahydro-1′H-spiro[indoline-3,4′-pyrrolo[3,4-a]pyrrolizine]-1′,2,3′(2′H)-trione] | +++ (NAUC “+++” refers to an observed NAUC >170% of positive control) | +++ (NAUC “+++” refers to an observed NAUC >170% of positive control)
19 | O=C1C2C3CCCN3C3(C(=O)Nc4c(Cl)cc(Cl)cc43)C2C(=O)N1c1cccc(Cl)c1 (stereo not shown) [Example 11] | + (NAUC “+” refers to an observed NAUC <140% of positive control) | +++ (NAUC “+++” refers to an observed NAUC >170% of positive control)
20 | Cc1cccc2c1NC(=O)C21C2C(=O)N(c3cc(Cl)cc(Cl)c3)C(=O)C2C2CCCN21 (stereo not shown) [Example 12] | + (NAUC “+” refers to an observed NAUC <140% of positive control) | ++ (NAUC “++” refers to an observed NAUC 170-140% of positive control)
21 | N#Cc1cccc(N2C(=O)C3C4CCCN4C4(C(=O)Nc5c(Cl)cc(Cl)cc54)C3C2=O)c1 (stereo not shown) [Example 14] | + (NAUC “+” refers to an observed NAUC <140% of positive control) | ++ (NAUC “++” refers to an observed NAUC 170-140% of positive control)
22 | O=C1C2C3CCCN3C3(C(=O)Nc4c(Cl)cc(Cl)cc43)C2C(=O)N1c1cccc(C(F)(F)F)c1 (stereo not shown) [Example 15] | ++ (NAUC “++” refers to an observed NAUC 170-140% of positive control) | +++ (NAUC “+++” refers to an observed NAUC >170% of positive control)
23 | O=C1C2C3CCCN3C3(C(=O)Nc4c(Cl)cc(Cl)cc43)C2C(=O)N1c1cc(C(F)(F)F)cc(C(F)(F)F)c1 (stereo not shown) [Example 16] | +++ (NAUC “+++” refers to an observed NAUC >170% of positive control) | +++ (NAUC “+++” refers to an observed NAUC >170% of positive control)
24 | CC(C)C1NC2(C(=O)Nc3c(Cl)cc(Cl)cc32)C2C(=O)N(c3cc(Cl)cc(Cl)c3)C(=O)C12 (stereo not shown) [Example 17] | + (NAUC “+” refers to an observed NAUC <140% of positive control) | ++ (NAUC “++” refers to an observed NAUC 170-140% of positive control)
25 | O=C1C2C3CCCN3C3(C(=O)Nc4c(C(F)(F)F)cccc43)C2C(=O)N1c1cc(Cl)cc(Cl)c1 (stereo not shown) [Example 18] | ++ (NAUC “++” refers to an observed NAUC 170-140% of positive control) | + (NAUC “+” refers to an observed NAUC <140% of positive control)
26 | NC(=O)c1cccc(N2C(=O)C3C4CCCN4C4(C(=O)Nc5c(Cl)cc(Cl)cc54)C3C2=O)c1 (stereo not shown) [Example 19] | + (NAUC “+” refers to an observed NAUC <140% of positive control) | ++ (NAUC “++” refers to an observed NAUC 170-140% of positive control)

From US10072017B2, “Compounds and methods for the treatment of cystic fibrosis” (Flatley Discovery Lab, LLC, priority 2015, dated 2018)
